Laboratory results published in the NIST ThermoML archive (doi:10.1016/j.jct.2005.10.019).
Numbers after ± are expanded uncertainties.

Assays:
[1] = 298.15 K; 101.33 kPa; Liquid
[2] = excess molar enthalpy (molar enthalpy of mixing); xn = mol fraction of the nth substance listed; settings: 298.15 K, 101 kPa, Liquid

ClC[C@@H]1CO1 [(2S)-chloromethyl-oxirane]
Settings	mass density [kg/m3]
[1]	1093.5 ± 1.3

ClC[C@H]1CO1 [(2R)-(chloromethyl)-oxirane]
Settings	mass density [kg/m3]
[1]	1093.3 ± 1.3

C[C@@H](N)c1ccccc1 [(R)-(+)-α-methylbenzylamine]
Settings	mass density [kg/m3]
[1]	965.38 ± 0.16

CCCC(=O)OC[C@@H]1CO1 [S-(-)-glycidyl butyrate]
Settings	mass density [kg/m3]
[1]	1029.7 ± 0.9

C[C@H](NCc1ccccc1)c1ccccc1 [(S)-N-benzyl-1-phenylethylamine]
Settings	mass density [kg/m3]
[1]	1007.9 ± 0.2

C[C@H](O)c1ccccc1 [(S)-(-)-1-phenylethanol] + C[C@@H](O)c1ccccc1
[2]
Settings	excess molar enthalpy [kJ/mol]
x1 = 0.07558	0.00316 ± 0.00055
x1 = 0.09137	0.00379 ± 0.00056
x1 = 0.1405	0.00532 ± 0.00056
x1 = 0.1675	0.00626 ± 0.00057
x1 = 0.197	0.00701 ± 0.00057
x1 = 0.2318	0.0077 ± 0.00057
x1 = 0.2464	0.00818 ± 0.00058
x1 = 0.2869	0.00892 ± 0.00058
x1 = 0.2902	0.00904 ± 0.00058
x1 = 0.3291	0.00964 ± 0.00058
x1 = 0.3346	0.00964 ± 0.00058
x1 = 0.364	0.0101 ± 0.00059
x1 = 0.3763	0.0101 ± 0.00059
x1 = 0.3954	0.0103 ± 0.00059
x1 = 0.4131	0.0103 ± 0.00059
x1 = 0.4239	0.0105 ± 0.00059
x1 = 0.4458	0.0105 ± 0.00059
x1 = 0.4498	0.0106 ± 0.00059
x1 = 0.4751	0.0105 ± 0.00059
x1 = 0.4753	0.0104 ± 0.00059
x1 = 0.497	0.0106 ± 0.00059
x1 = 0.5014	0.0106 ± 0.00059
x1 = 0.5208	0.0106 ± 0.00059
x1 = 0.5252	0.0105 ± 0.00059
x1 = 0.5469	0.0105 ± 0.00059
x1 = 0.547	0.0106 ± 0.00059
x1 = 0.5668	0.0105 ± 0.00059
x1 = 0.576	0.0105 ± 0.00059
x1 = 0.5993	0.0105 ± 0.00059
x1 = 0.6083	0.0103 ± 0.00059
x1 = 0.6357	0.0101 ± 0.00059
x1 = 0.6443	0.00996 ± 0.00059
x1 = 0.6768	0.00959 ± 0.00058
x1 = 0.6849	0.00949 ± 0.00058
x1 = 0.7235	0.00897 ± 0.00058
x1 = 0.731	0.00874 ± 0.00058
x1 = 0.7773	0.00796 ± 0.00058
x1 = 0.7837	0.00766 ± 0.00057
x1 = 0.8396	0.00601 ± 0.00057
x1 = 0.8446	0.00622 ± 0.00057
x1 = 0.9128	0.00359 ± 0.00056
x1 = 0.9158	0.0035 ± 0.00056

COC(=O)[C@H](C)CO [(2R)-3-hydroxy-2-methyl-propanoic acid methyl ester]
Settings	mass density [kg/m3]
[1]	1067.5 ± 0.2

C[C@@H]1COC(=O)O1 [(R)-4-methyl-1,3-dioxolan-2-one]
Settings	mass density [kg/m3]
[1]	1199.4 ± 0.3

CCCC(=O)OC[C@H]1CO1 [R(-)-2,3-epoxypropyl butanoate]
Settings	mass density [kg/m3]
[1]	1036.3 ± 1

COC(=O)[C@@H](C)CO [(2S)-3-hydroxy-2-methyl-propanoic acid methyl ester]
Settings	mass density [kg/m3]
[1]	1069.6 ± 0.2

C[C@@H](NCc1ccccc1)c1ccccc1 [(R)-(+)-N-benzyl-1-phenylethylamine]
Settings	mass density [kg/m3]
[1]	1007.7 ± 0.2

ClC[C@H]1CO1 [(2R)-(chloromethyl)-oxirane] + ClC[C@@H]1CO1
[2]
Settings	excess molar enthalpy [kJ/mol]
x2 = 0.01821	0.000852 ± 0.00054
x2 = 0.03578	0.00166 ± 0.00055
x2 = 0.05272	0.00242 ± 0.00055
x2 = 0.05939	0.00277 ± 0.00055
x2 = 0.06908	0.0031 ± 0.00055
x2 = 0.08489	0.00373 ± 0.00056
x2 = 0.1002	0.0043 ± 0.00056
x2 = 0.1121	0.00477 ± 0.00056
x2 = 0.1149	0.00484 ± 0.00056
x2 = 0.1292	0.00536 ± 0.00056
x2 = 0.1373	0.00555 ± 0.00056
x2 = 0.1431	0.00583 ± 0.00057
x2 = 0.1565	0.00626 ± 0.00057
x2 = 0.1593	0.0063 ± 0.00057
x2 = 0.1695	0.00667 ± 0.00057
x2 = 0.1706	0.00679 ± 0.00057
x2 = 0.1821	0.00707 ± 0.00057
x2 = 0.1943	0.00744 ± 0.00057
x2 = 0.2016	0.00758 ± 0.00057
x2 = 0.2399	0.00848 ± 0.00058
x2 = 0.2414	0.00873 ± 0.00058
x2 = 0.2748	0.00949 ± 0.00058
x2 = 0.2915	0.01 ± 0.00059
x2 = 0.3065	0.00986 ± 0.00059
x2 = 0.3231	0.0105 ± 0.00059
x2 = 0.3356	0.0104 ± 0.00059
x2 = 0.3624	0.011 ± 0.00059
x2 = 0.3693	0.0111 ± 0.00059
x2 = 0.3816	0.0115 ± 0.00059
x2 = 0.387	0.0113 ± 0.00059
x2 = 0.3889	0.0114 ± 0.00059
x2 = 0.4009	0.0115 ± 0.00059
x2 = 0.4099	0.0117 ± 0.00059
x2 = 0.417	0.0115 ± 0.00059
x2 = 0.4311	0.0117 ± 0.00059
x2 = 0.4384	0.0118 ± 0.00059
x2 = 0.4431	0.0118 ± 0.00059
x2 = 0.4498	0.012 ± 0.00059
x2 = 0.4508	0.0116 ± 0.00059
x2 = 0.4514	0.0119 ± 0.00059
x2 = 0.4837	0.012 ± 0.00059
x2 = 0.4882	0.0121 ± 0.0006
x2 = 0.4884	0.012 ± 0.00059
x2 = 0.5071	0.0122 ± 0.0006
x2 = 0.5269	0.0119 ± 0.00059
x2 = 0.5337	0.012 ± 0.00059
x2 = 0.5394	0.0119 ± 0.00059
x2 = 0.5525	0.012 ± 0.00059
x2 = 0.5886	0.0117 ± 0.00059
x2 = 0.5902	0.0118 ± 0.00059
x2 = 0.6096	0.0114 ± 0.00059
x2 = 0.6221	0.0114 ± 0.00059
x2 = 0.6561	0.0109 ± 0.00059
x2 = 0.7008	0.01 ± 0.00059
x2 = 0.741	0.00924 ± 0.00058
x2 = 0.7793	0.0082 ± 0.00058
x2 = 0.7927	0.00781 ± 0.00057
x2 = 0.8067	0.00715 ± 0.00057
x2 = 0.8211	0.00675 ± 0.00057
x2 = 0.8241	0.0069 ± 0.00057
x2 = 0.8361	0.0063 ± 0.00057
x2 = 0.8513	0.00601 ± 0.00057
x2 = 0.8516	0.00572 ± 0.00056
x2 = 0.8677	0.00541 ± 0.00056
x2 = 0.8844	0.00473 ± 0.00056
x2 = 0.9018	0.004 ± 0.00056
x2 = 0.9198	0.00331 ± 0.00055
x2 = 0.9387	0.0026 ± 0.00055
x2 = 0.9583	0.00177 ± 0.00055
x2 = 0.9787	0.000913 ± 0.00054
